In ChEMBL document CHEMBL1201862, “PubChem BioAssay data set” (2004):
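Tested at 5 concentrations; 48 h exposure; 96-well plates; endpoints linearly interpolated, else capped at highest concentration. GI50 marks 50% less growth.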 The source made the active and inactive calls. Rule as the data show it: active = GI50 up to about 1.1 µM and inactive = higher.

Assays:
Experiment in all cases: growth of human tumour cells (NCI), 48 h
[1] = tested on: TK-10
[2] = tested on: SF-539
[3] = tested on: HOP-62
[4] = tested on: U-251
[5] = tested on: RXF 393
[6] = tested on: SK-MEL-5
[7] = tested on: SN12C
[8] = tested on: IGROV-1
[9] = tested on: SNB-75
[10] = tested on: Malme-3M
[11] = tested on: SK-OV-3
[12] = tested on: MOLT-4
[13] = tested on: KM12
[14] = tested on: A498
[15] = tested on: K562
[16] = tested on: ACHN
[17] = tested on: NCI-H226
[18] = tested on: HCT-116
[19] = tested on: HCT-15
[20] = tested on: CCRF-CEM

| Structure (SMILES) | GI50 [1] | GI50 [2] | GI50 [3] | GI50 [4] | GI50 [5] | GI50 [6] | GI50 [7] | GI50 [8] | GI50 [9] | GI50 [10] | GI50 [11] | GI50 [12] | GI50 [13] | GI50 [14] | GI50 [15] | GI50 [16] | GI50 [17] | GI50 [18] | GI50 [19] [µM] | GI50 [20] |
| --- | --- | --- | --- | --- | --- | --- | --- | --- | --- | --- | --- | --- | --- | --- | --- | --- | --- | --- | --- | --- |
| Cc1cc2c(cc1C)NC1=C(O)C(c3c[nH]c4ccc(COc5ccccc5)cc34)OC1=N2 (configuration not stated) | 53.5 µM (inactive) | 27.4 µM (inactive) | 20.4 µM (inactive) | 34.4 µM (inactive) | 39.6 µM (inactive) | > 100 µM (inactive) | > 100 µM (inactive) | 60.8 µM (inactive) | 14.9 µM (inactive) | > 100 µM (inactive) | 33.6 µM (inactive) | 46.9 µM (inactive) | > 100 µM (inactive) | 32 µM (inactive) | > 100 µM (inactive) | 45.7 µM (inactive) | 58.7 µM (inactive) | 96.8 µM (inactive) | > 100 | – |
| Cn1c(=S)c2nc(SCc3cccnc3)[nH]c2n(C)c1=O | > 100 µM (inactive) | > 100 µM (inactive) | > 100 µM (inactive) | > 100 µM (inactive) | > 100 µM (inactive) | > 100 µM (inactive) | > 100 µM (inactive) | > 100 µM (inactive) | 96.8 µM (inactive) | 93.8 µM (inactive) | > 100 µM (inactive) | > 100 µM (inactive) | > 100 µM (inactive) | > 100 µM (inactive) | > 100 µM (inactive) | > 100 µM (inactive) | > 100 µM (inactive) | > 100 µM (inactive) | > 100 | – |
| Cc1ccccc1-n1c(=O)sc2c(=O)n(-c3ccccc3)c(=S)[nH]c21 | – | > 100 µM (inactive) | > 100 µM (inactive) | > 100 µM (inactive) | > 100 µM (inactive) | > 100 µM (inactive) | > 100 µM (inactive) | > 100 µM (inactive) | > 100 µM (inactive) | > 100 µM (inactive) | > 100 µM (inactive) | > 100 µM (inactive) | > 100 µM (inactive) | > 100 µM (inactive) | > 100 µM (inactive) | > 100 µM (inactive) | > 100 µM (inactive) | > 100 µM (inactive) | > 100 | 47.3 µM (inactive) |
| c1ccc(NCn2cnc3ccccc32)cc1 | > 100 µM (inactive) | > 100 µM (inactive) | – | > 100 µM (inactive) | > 100 µM (inactive) | > 100 µM (inactive) | > 100 µM (inactive) | > 100 µM (inactive) | 56.9 µM (inactive) | > 100 µM (inactive) | > 100 µM (inactive) | > 100 µM (inactive) | > 100 µM (inactive) | > 100 µM (inactive) | 20.8 µM (inactive) | 68.4 µM (inactive) | > 100 µM (inactive) | 74.1 µM (inactive) | 15.6 | 37.1 µM (inactive) |
| CC1CC(=O)C(CC(=O)O)C1C(C(=O)C(=O)Nc1c(C#N)cccc1[N+](=O)[O-])[N+](=O)[O-] (configuration not stated) | > 100 µM (inactive) | > 100 µM (inactive) | > 100 µM (inactive) | > 100 µM (inactive) | > 100 µM (inactive) | > 100 µM (inactive) | – | > 100 µM (inactive) | > 100 µM (inactive) | > 100 µM (inactive) | > 100 µM (inactive) | > 100 µM (inactive) | > 100 µM (inactive) | > 100 µM (inactive) | > 100 µM (inactive) | > 100 µM (inactive) | > 100 µM (inactive) | > 100 µM (inactive) | > 100 | > 100 µM (inactive) |
| COC(=O)C(=O)C(C(=O)C(=O)Nc1ccc(F)cc1)c1nc2ccc([N+](=O)[O-])cc2nc1O (configuration not stated) | > 100 µM (inactive) | > 100 µM (inactive) | > 100 µM (inactive) | > 100 µM (inactive) | > 100 µM (inactive) | > 100 µM (inactive) | > 100 µM (inactive) | > 100 µM (inactive) | > 100 µM (inactive) | > 100 µM (inactive) | > 100 µM (inactive) | – | > 100 µM (inactive) | > 100 µM (inactive) | > 100 µM (inactive) | – | > 100 µM (inactive) | > 100 µM (inactive) | > 100 | > 100 µM (inactive) |
| NCCCN(CCCCN(CCCN)Cc1ccc2ccccc2c1)Cc1ccc2ccccc2c1 | 2.21 µM (inactive) | 1.8 µM (inactive) | – | 1.8 µM (inactive) | 1.95 µM (inactive) | 1.92 µM (inactive) | 1.57 µM (inactive) | 1.82 µM (inactive) | 1.5 µM (inactive) | 1.76 µM (inactive) | 1.86 µM (inactive) | 2.01 µM (inactive) | 1.86 µM (inactive) | 2.1 µM (inactive) | 3.51 µM (inactive) | 1.9 µM (inactive) | 1.8 µM (inactive) | 2.54 µM (inactive) | 3.58 | 27 µM (inactive) |
